Our source for the IC50 and EC50 values is patent US20260200946A1, “KRAS(G12V) INHIBITORS” (Ranok Therapeutics (Hangzhou) Co. Ltd., priority 2022, published 2026).

For one assay, the target named is T1, KRAS(G12V)/SOS1 (Homo sapiens, UniProt P01116, G12V).
T1 construct: purchased Cisbio 63ADK000CB18PEH
T1 sequence (P01116 1-188 isoform P01116-2 G12V): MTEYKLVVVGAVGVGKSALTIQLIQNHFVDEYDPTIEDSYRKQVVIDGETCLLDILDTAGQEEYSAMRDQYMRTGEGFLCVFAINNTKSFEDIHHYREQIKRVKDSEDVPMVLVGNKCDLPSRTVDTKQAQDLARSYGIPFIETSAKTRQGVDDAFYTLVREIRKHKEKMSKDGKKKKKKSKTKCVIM
The experiment in a line: KRAS(G12V)/SOS1 homogeneous time-resolved fluorescence (HTRF) assay. The note with it: absence of GTP; 4° C., 3 hours; read-out: HTRF of KRASG12V-SOS1. The class given is binding. In general terms: TR-FRET usually uses a lanthanide donor and a delayed reading to cut background.
With `C#Cc1c(F)ccc2cc(O)cc(-c3ncc4c(N5CC6CCC(C5)N6C(=O)OC(C)C)nc(OCC5(CN6CCC(F)CC6)CC5)nc4c3F)c12` [Example 42], the IC50 lay within 0.1 to 1 µM.
In the case of `C#Cc1c(F)ccc2cc(O)cc(-c3ncc4c(N5CC6CCC(C5)N6C(=O)C(C)(C)C)nc(OCC5(CN6CCC(F)CC6)CC5)nc4c3F)c12` [Example 43], the IC50 was in the range of 0.1 to 1 µM.
Still for that read-out and setting: next, `C#Cc1c(F)ccc2cc(O)cc(-c3nc(OC)c4c(N5CC6CCC(C5)N6C(=O)C5CC5(F)F)nc(OCC5(CN6CCC(F)CC6)CC5)nc4c3F)c12` (stereo not drawn) [Example 44]: below 0.1 µM.
In the case of `C#Cc1c(F)ccc2cc(O)cc(-c3nc(OC)c4c(N5CC6CCC(C5)N6C(=O)C5(C(F)(F)F)CC5)nc(OCC5(CN6CCC(F)CC6)CC5)nc4c3F)c12` [Example 45], the IC50 is below 0.1 µM.
On to `C#Cc1c(F)ccc2cc(O)cc(-c3nc(OC)c4c(N5CC6CCC(C5)N6C(=O)NC5CC5)nc(OCC5(CN6CCC(F)CC6)CC5)nc4c3F)c12` [Example 46], for which the IC50 is below 0.1 µM.
On the same count and under the same terms, next, `C#CCCC(=O)N1C2CCC1CN(c1nc(OCC3(CN4CCC(F)CC4)CC3)nc3c(F)c(-c4cc(O)cc5ccc(F)c(C#C)c45)ncc13)C2` [Example 47]: below 0.1 µM; `C#Cc1c(F)ccc2cc(O)cc(-c3ncc4c(N5CC6CCC(C5)N6C(=O)NC5CCCC5)nc(OCC5(CN6CCC(F)CC6)CC5)nc4c3F)c12` [Example 48]: below 0.1 µM; `C#Cc1c(F)ccc2cc(O)cc(-c3ncc4c(N5CC6CCC(C5)N6C(=O)NC5CCNC5)nc(OCC5(CN6CCC(F)CC6)CC5)nc4c3F)c12` (stereo not drawn) [Example 49]: below 0.1 µM.
In the case of `C#Cc1c(F)ccc2cc(O)cc(-c3nc(OC)c4c(N5CC6CCC(C5)N6C(=O)C5CC5)nc(OCC5(CN6CCC(F)CC6)CC5)nc4c3F)c12` [Example 50], the IC50 is below 0.1 µM.
Still for that read-out and setting: next, `C#Cc1c(F)ccc2cc(O)cc(-c3ncc4c(N5CC6CCC(C5)N6C(=O)NC5(C(F)(F)F)CC5)nc(OCC5(CN6CCC(F)CC6)CC5)nc4c3F)c12` [Example 51]: below 0.1 µM.
The same measure, in the same setting: next, `C#Cc1c(F)ccc2cc(O)cc(-c3nc(OC)c4c(N5CC6CCC(C5)N6C(=O)C(C)C(F)(F)F)nc(OCC5(CN6CCC(F)CC6)CC5)nc4c3F)c12` (stereo not drawn) [Example 52]: below 0.1 µM.

A further assay relates to NCIH727 cells. Nature of the assay: Cancer cell line proliferation (CellTiter-Glo), NCI-H727. The class given is cell-based. Particulars: Homo sapiens, 72 h, NCIH727 lung carcinoid, heterozygous G12V. Summed up: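 NCI-H727 cells (1,000/well) were grown 72 h at 37 °C/5% CO2, then exposed to compound at various concentrations (0.5% DMSO final) for a further 72 h. Viability was read by CellTiter-Glo luminescence, and IC50 values were calculated from the dose-response.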
(ATP-based viability assays read luminescence as a measure of living cells.)
In general, EC50 refers to the concentration needed to bring the measured effect to its halfway point. High values mean lower potency in that assay, low ones higher potency in that assay. Take `C#Cc1c(F)ccc2cc(O)cc(-c3ncc4c(N5CC6CCC(C5)N6C(=O)OC(C)C)nc(OCC5(CN6CCC(F)CC6)CC5)nc4c3F)c12` [Example 42]: the half-maximal effective concentration (EC50) is above 1 µM.
Still for that read-out and setting: next, `C#Cc1c(F)ccc2cc(O)cc(-c3ncc4c(N5CC6CCC(C5)N6C(=O)C(C)(C)C)nc(OCC5(CN6CCC(F)CC6)CC5)nc4c3F)c12` [Example 43]: above 1 µM.
`C#Cc1c(F)ccc2cc(O)cc(-c3nc(OC)c4c(N5CC6CCC(C5)N6C(=O)C5CC5(F)F)nc(OCC5(CN6CCC(F)CC6)CC5)nc4c3F)c12` (stereo not drawn) [Example 44] had an EC50 of 0.1 to 1 µM.
The same measure, in the same setting: next, `C#Cc1c(F)ccc2cc(O)cc(-c3nc(OC)c4c(N5CC6CCC(C5)N6C(=O)C5(C(F)(F)F)CC5)nc(OCC5(CN6CCC(F)CC6)CC5)nc4c3F)c12` [Example 45]: above 1 µM; `C#Cc1c(F)ccc2cc(O)cc(-c3nc(OC)c4c(N5CC6CCC(C5)N6C(=O)NC5CC5)nc(OCC5(CN6CCC(F)CC6)CC5)nc4c3F)c12` [Example 46]: 0.1 to 1 µM.
Compound `C#CCCC(=O)N1C2CCC1CN(c1nc(OCC3(CN4CCC(F)CC4)CC3)nc3c(F)c(-c4cc(O)cc5ccc(F)c(C#C)c45)ncc13)C2` [Example 47] came in with an EC50 above 1 µM.
Same read-out and setting: next, `C#Cc1c(F)ccc2cc(O)cc(-c3ncc4c(N5CC6CCC(C5)N6C(=O)NC5CCCC5)nc(OCC5(CN6CCC(F)CC6)CC5)nc4c3F)c12` [Example 48]: above 1 µM; `C#Cc1c(F)ccc2cc(O)cc(-c3ncc4c(N5CC6CCC(C5)N6C(=O)NC5CCNC5)nc(OCC5(CN6CCC(F)CC6)CC5)nc4c3F)c12` (stereo not drawn) [Example 49]: above 1 µM.
Compound `C#Cc1c(F)ccc2cc(O)cc(-c3nc(OC)c4c(N5CC6CCC(C5)N6C(=O)C5CC5)nc(OCC5(CN6CCC(F)CC6)CC5)nc4c3F)c12` [Example 50] returned an EC50 above 1 µM.
Same read-out and setting: next, `C#Cc1c(F)ccc2cc(O)cc(-c3ncc4c(N5CC6CCC(C5)N6C(=O)NC5(C(F)(F)F)CC5)nc(OCC5(CN6CCC(F)CC6)CC5)nc4c3F)c12` [Example 51]: above 1 µM; `C#Cc1c(F)ccc2cc(O)cc(-c3nc(OC)c4c(N5CC6CCC(C5)N6C(=O)C(C)C(F)(F)F)nc(OCC5(CN6CCC(F)CC6)CC5)nc4c3F)c12` (stereo not drawn) [Example 52]: above 1 µM.

The next assay has as its system SW620 cells. The experiment in a line: Cancer cell line proliferation (CellTiter-Glo), SW620. The class given is cell-based. The note with it: Homo sapiens, SW-620, SW620 colorectal adenocarcinoma, homozygous G12V, 72 hr. The protocol:
Cell lines were cultured essentially according to ATCC recommendations. SW620 and NCIH727 cells were plated in 384-well tissue culture plates at 1,000 cells/well and incubated at 37° C./5% CO2 for 72 hr in 40 μl of media. […] Each cell line was then treated with test compounds at various concentrations with a final concentration of 0.5% DMSO/well, and then incubated at 37° C./5% CO2 for 72 hr. 40 μl of CellTiter-Glo® Reagent (Promega Corporation, Madison, WI) was added to each well and processed according manufacturer's protocol. Results were analyzed and IC50 values were calculated in GraphPad 8.0 software.
On to `C#Cc1c(F)ccc2cc(O)cc(-c3ncc4c(N5CC6CCC(C5)N6C(=O)OC(C)C)nc(OCC5(CN6CCC(F)CC6)CC5)nc4c3F)c12` [Example 42], for which the EC50 was above 1 µM.
Same read-out and setting: next, `C#Cc1c(F)ccc2cc(O)cc(-c3ncc4c(N5CC6CCC(C5)N6C(=O)C(C)(C)C)nc(OCC5(CN6CCC(F)CC6)CC5)nc4c3F)c12` [Example 43]: above 1 µM.
Take `C#Cc1c(F)ccc2cc(O)cc(-c3nc(OC)c4c(N5CC6CCC(C5)N6C(=O)C5CC5(F)F)nc(OCC5(CN6CCC(F)CC6)CC5)nc4c3F)c12` (stereo not drawn) [Example 44]: the EC50 fell in the range of 0.1 to 1 µM.
The same measure, in the same setting: next, `C#Cc1c(F)ccc2cc(O)cc(-c3nc(OC)c4c(N5CC6CCC(C5)N6C(=O)C5(C(F)(F)F)CC5)nc(OCC5(CN6CCC(F)CC6)CC5)nc4c3F)c12` [Example 45]: above 1 µM; `C#Cc1c(F)ccc2cc(O)cc(-c3nc(OC)c4c(N5CC6CCC(C5)N6C(=O)NC5CC5)nc(OCC5(CN6CCC(F)CC6)CC5)nc4c3F)c12` [Example 46]: 0.1 to 1 µM.
Turning to `C#CCCC(=O)N1C2CCC1CN(c1nc(OCC3(CN4CCC(F)CC4)CC3)nc3c(F)c(-c4cc(O)cc5ccc(F)c(C#C)c45)ncc13)C2` [Example 47], the EC50 was above 1 µM.
On the same count and under the same terms, next, `C#Cc1c(F)ccc2cc(O)cc(-c3ncc4c(N5CC6CCC(C5)N6C(=O)NC5CCCC5)nc(OCC5(CN6CCC(F)CC6)CC5)nc4c3F)c12` [Example 48]: above 1 µM; `C#Cc1c(F)ccc2cc(O)cc(-c3ncc4c(N5CC6CCC(C5)N6C(=O)NC5CCNC5)nc(OCC5(CN6CCC(F)CC6)CC5)nc4c3F)c12` (stereo not drawn) [Example 49]: above 1 µM.
As for `C#Cc1c(F)ccc2cc(O)cc(-c3nc(OC)c4c(N5CC6CCC(C5)N6C(=O)C5CC5)nc(OCC5(CN6CCC(F)CC6)CC5)nc4c3F)c12` [Example 50], the EC50 was above 1 µM.
Same read-out and setting: next, `C#Cc1c(F)ccc2cc(O)cc(-c3ncc4c(N5CC6CCC(C5)N6C(=O)NC5(C(F)(F)F)CC5)nc(OCC5(CN6CCC(F)CC6)CC5)nc4c3F)c12` [Example 51]: above 1 µM; `C#Cc1c(F)ccc2cc(O)cc(-c3nc(OC)c4c(N5CC6CCC(C5)N6C(=O)C(C)C(F)(F)F)nc(OCC5(CN6CCC(F)CC6)CC5)nc4c3F)c12` (stereo not drawn) [Example 52]: above 1 µM.
